In patent US5900476A, “Therapeutic domains of van Willebrand factor” (The Scripps Research Institute, priority 1992, dated 1999):

Legend:
GPIbα [1] = assay: Inhibition of 125I LJ-Ib1 antibody binding to platelets, no modulator
Experimental: (§1) To assess the inhibitory activity of p5E extracts on antibody binding, a concentration of LJ-Ib1 was first selected which would, in the absence of p5E extracts, provide half-maximal binding.
(§2) LJ-Ib1 was iodinated by the procedure of Fraker, D.J. et al., Biochem. Biophys. Res. Commun., 80, 849-857 (1978) using I^125 from Amersham, Arlington Heights, IL and Iodogen (Pierce Chemical Co., Rockford, IL). Washed platelets were prepared by the albumin density gradient technique of Walsh, et al., Br. J. Haematol., 36, 281-298 (1977), and used at a count of 1 x 10^8 /ml.
The p5E polypeptide extract was purified according to the procedure of Example 4 including final purification of the urea-solubilized inclusion body preparation by dialysis against 6.0M guanidine and urea solutions followed by Q-Sepharose® chromatography.
To evaluate binding, platelets were incubated for 30 minutes at 22-25° C. with LJ-Ib1 (10 μg/ml) and concentrations of purified p5E protein (.002-10.0 μMolar) as indicated in FIGS. 3A and 3B. Inhibition was plotted in the presence of 2 μg/ml botrocetin, Sigma Chemical Co., St. Louis, MO, (FIG. 3B) and in the absence of botrocetin (FIG. 3A).
Less than 5 percent of the ^125 I label bound to the platelets was contributed by labelled substances other than LJ-Ib1 as determined by binding competition experiments in the presence of a 100 fold excess of unlabelled LJ-Ib1. Background labelling was subtracted from data points. Binding of ^125 I LJ-Ib1 was expressed as a percentage of a control assay lacking recombinant polypeptides. […] It is known that botrocetin induces in circulating multisubunit von Willebrand factor and single subunits thereof a conformational change which enhances or permits binding to the GPIbα receptor. […] Structural similarity is therefore indicated.
The interaction the mutant molecules with GPIbα was evaluated using an assay (Sugimoto, M. et al., Biochemistry, 30, 5202-5209 (1991)) based on inhibition of binding of antibody LJ-Ib1 to platelets. The corresponding IC50 values (concentration of fragment required to inhibit 50% of antibody binding) are presented in Table 2 (no modulator) and Table 3 (botrocetin added).
The interaction of rvWF^441-733 with GPIbα was measured by the ability of rvWF^441-733 to inhibit the binding of an anti-GPIbα monoclonal antibody, LJ-IB1, to platelets. This assay, previously described in detail, (Sugimoto, M. et al., Biochemistry, 30, 5202-5208 (1991)) offers the advantage that the binding of LJ-Ib1, unlike that of native vWF, is not dependent on the presence of modulators, like ristocetin or botrocetin. Binding by vWF^441-733 to GPIbα is thought to block the region of GPIbα to which LJ-Ib1 binds.

NMC-4 antibody = assay: Immunoblotting with conformation-dependent monoclonal antibody NMC-4; format: binding, murine
Experimental: Polypeptides expressed from p7E, p7D and pJD18 were further characterized by immunoblotting ("Western blotting") according to a standard procedure Burnett et al., A. Anal. Biochem., 112, 195-203, (1981) and as recommended by reagent suppliers. Samples containing approximately 10 μg of protein from the urea-solubilized and dialyzed inclusion body extracts of host cells (containing p7E, p7D and pJD18 plasmids) were subjected to electrophoresis on 10% polyacrylamide gels, Laemli, U.K. Nature, 227, 680-685 (1970), in the presence of 2% concentration of sodium dodecyl sulfate.
The proteins were blotted and immobilized onto a nitrocellulose sheet (Schleicher and Schuell, Keene, NH) and the pattern was then visualized using immunoreactivity.
The secondary antibody (^125 I-rabbit anti-mouse IgG), labelled by the method of Fraker, P.J. et al. Biochem. Biophys. Res. Commun., 80, 849-857 (1978)), was incubated for 60 minutes at 25° C. on the nitrocellulose sheet. After rinsing, the sheet was developed by autoradiography.
NMC-4 however, has as its epitope the domain of the von Willebrand factor subunit which contains the glycoprotein Ib binding site. […] Id. at 17903. […]

GPIbα [2] = assay: Inhibition of 125I LJ-Ib1 antibody binding to platelets in the presence of botrocetin; details: botrocetin 2 μg/ml; LJ-Ib1 10 μg/ml; purified p5E protein; read-out: 50% inhibition of 125I LJ-Ib1 binding to platelets
Experimental: as §1
as §2, with “/ml. […]” for “/ml.”
Less than 5 percent of the ^125 I label bound to the platelets was contributed by labelled substances other than LJ-Ib1 as determined by binding competition experiments in the presence of a 100 fold excess of unlabelled LJ-Ib1. […] Binding of ^125 I LJ-Ib1 was expressed as a percentage of a control assay lacking recombinant polypeptides. […]
The interaction the mutant molecules with GPIbα was evaluated using an assay (Sugimoto, M. et al., Biochemistry, 30, 5202-5209 (1991)) based on inhibition of binding of antibody LJ-Ib1 to platelets. […]
The interaction of rvWF^441-733 with GPIbα was measured by the ability of rvWF^441-733 to inhibit the binding of an anti-GPIbα monoclonal antibody, LJ-IB1, to platelets. […]

[3] = oxidized form (Cys509-Cys695 bond), absence of modulators, range of results over n experiments, read-out: (Oxidized) IC50
[4] = reduced/alkylated form, absence of modulators, range of results over n experiments, read-out: (Reduced/alkylated) IC

Row | Substance | IC50 (GPIbα [1]; [3]) [nM] | IC50 (GPIbα [1]; [4]) [nM] | IC50 of reduced and alkylated form relative to oxidized form (GPIbα [1]; absence of modulator, FIG. 3A) | IC50 (GPIbα [1]; without botrocetin, LJ-Ib1 10 μg/ml, purified p5E protein, read-out: Fifty percent inhibition of 125I LJ-Ib1 binding to platelets) [nM] | Increase in binding affinity for NMC-4 compared to cysteine-free p7E species (NMC-4 antibody; nonreducing conditions, single chain species, immunoblot) [fold] | Affinity for NMC-4 after electrophoresis under reducing conditions (NMC-4 antibody; reducing conditions, 100 mM DTT) | IC50 (GPIbα [2]) [nM] | Ability to inhibit LJ-Ib1 binding to platelets / affinity for GPIbα relative to rvWF^441-733 (GPIbα [1]; reduced and alkylated form, Table 2)
1 | rvWF^441-700: C-terminal deletion fragment of the p5E vWF polypeptide terminating at residue 700 | 2000 to 3100 | 500 |  |  |  |  |  | 
2 | rvWF^441-704: C-terminal deletion fragment of the p5E vWF polypeptide terminating at residue 704 | 2600 to 3200 | 30 to 40 |  |  |  |  |  | 
3 | rvWF^441-733: recombinant vWF residue 441-733 fragment from p5E; Cys 459, 462, 464, 471, 474 replaced by Gly; Cys509-Cys695 retained; oxidized or reduced/alkylated | 3000 to 5000 | 70 to 300 | more than ten fold lower | 10000 | ~120 | remarkably decreased affinity for NMC-4 | < 100 | 
4 | rvWF^441-696: C-terminal deletion fragment of the p5E vWF polypeptide terminating at residue 696 | 1000 to 1300 | > 4000 |  |  |  |  |  | greatly reduced ability to inhibit LJ-Ib1 binding to platelets
